Consider seven compounds from PubChem BioAssay AID1259407 (Chemical Carcinogenesis Research Information System (CCRIS), 2018).

Molecules are shown by their SMILES. Active and inactive are the calls of the source. How the calls were made is not given here.

The data set has as its system CCRIS mutagenicity, Ames/micronucleus/aberration tests. Description: CCRIS mutagenicity studies.
Setting [1] is: Test System: AMES SALMONELLA TYPHIMURIUM, Strain/Indicator: TA98, Metabolic Activation: NONE, Method: PREINCUBATION
Setting [2] is: Test System: AMES SALMONELLA TYPHIMURIUM, Strain/Indicator: TA100, Metabolic Activation: NONE, Method: PREINCUBATION
The mark [3] stands for this setting: Test System: AMES SALMONELLA TYPHIMURIUM, Strain/Indicator: TA1535, Metabolic Activation: NONE, Method: PREINCUBATION
The mark [4] stands for this setting: Test System: AMES SALMONELLA TYPHIMURIUM, Strain/Indicator: TA1537, Metabolic Activation: NONE, Method: PREINCUBATION
Setting [5] is: Test System: AMES SALMONELLA TYPHIMURIUM, Strain/Indicator: TA1535, Metabolic Activation: NONE, Method: STANDARD PLATE.

On to `CN(C)CCCN`, for which the mutagenic call by setting is: (Test System: AMES SALMONELLA TYPHIMURIUM, Strain/Indicator: TA98, Metabolic Activation: HAMSTER, LIVER, S-9, AROCLOR 1254 (10%), Method: PREINCUBATION) “inactive; negative”; under setting [1], “inactive; negative”; (Test System: AMES SALMONELLA TYPHIMURIUM, Strain/Indicator: TA98, Metabolic Activation: RAT, LIVER, S-9, AROCLOR 1254 (10%), Method: PREINCUBATION) “inactive; negative”; (Test System: AMES SALMONELLA TYPHIMURIUM, Strain/Indicator: TA98, Metabolic Activation: RAT, LIVER, S-9, PCB, Method: PREINCUBATION) “inactive; negative”; (Test System: AMES SALMONELLA TYPHIMURIUM, Strain/Indicator: TA100, Metabolic Activation: HAMSTER, LIVER, S-9, AROCLOR 1254 (10%), Method: PREINCUBATION) “inactive; negative”; under setting [2], “inactive; negative”. Moreover, the mutagenic call reads like this: (Test System: AMES SALMONELLA TYPHIMURIUM, Strain/Indicator: TA100, Metabolic Activation: RAT, LIVER, S-9, AROCLOR 1254 (10%), Method: PREINCUBATION) “inactive; negative”; (Test System: AMES SALMONELLA TYPHIMURIUM, Strain/Indicator: TA100, Metabolic Activation: RAT, LIVER, S-9, PCB, Method: PREINCUBATION) “inactive; negative”; (Test System: AMES SALMONELLA TYPHIMURIUM, Strain/Indicator: TA1535, Metabolic Activation: HAMSTER, LIVER, S-9, AROCLOR 1254 (10%), Method: PREINCUBATION) “inactive; negative”; under setting [3], “inactive; negative”; (Test System: AMES SALMONELLA TYPHIMURIUM, Strain/Indicator: TA1535, Metabolic Activation: RAT, LIVER, S-9, AROCLOR 1254 (10%), Method: PREINCUBATION) “inactive; negative”; (Test System: AMES SALMONELLA TYPHIMURIUM, Strain/Indicator: TA1537, Metabolic Activation: HAMSTER, LIVER, S-9, AROCLOR 1254 (10%), Method: PREINCUBATION) “inactive; negative”. The mutagenic call by setting is: under setting [4], “inactive; negative”; (Test System: AMES SALMONELLA TYPHIMURIUM, Strain/Indicator: TA1537, Metabolic Activation: RAT, LIVER, S-9, AROCLOR 1254 (10%), Method: PREINCUBATION) “inactive; negative”.
Turning to `CC(O)CN(CC(C)O)CC(C)O` (centres undefined) (tested in a mixture with another compound), the mutagenic call under setting [1] was “inactive; negative”; the mutagenic call (Test System: AMES SALMONELLA TYPHIMURIUM, Strain/Indicator: TA98, Metabolic Activation: RAT LIVER S-9, AROCLOR 1254, 10%, Method: PREINCUBATION) was “inactive; negative”; the mutagenic call under setting [2] was “inactive; negative”; the mutagenic call (Test System: AMES SALMONELLA TYPHIMURIUM, Strain/Indicator: TA100, Metabolic Activation: RAT LIVER S-9, AROCLOR 1254, 10%, Method: PREINCUBATION) was “inactive; negative”; the mutagenic call under setting [3] was “inactive; negative”; the mutagenic call (Test System: AMES SALMONELLA TYPHIMURIUM, Strain/Indicator: TA1535, Metabolic Activation: RAT LIVER S-9, AROCLOR 1254, 10%, Method: PREINCUBATION) is “inactive; negative”. In addition, the mutagenic call is “inactive; negative” under setting [4]; “inactive; negative” (Test System: AMES SALMONELLA TYPHIMURIUM, Strain/Indicator: TA1537, Metabolic Activation: RAT LIVER S-9, AROCLOR 1254, 10%, Method: PREINCUBATION); “inactive; negative” (Test System: UDS RAT HEPATOCYTES, Strain/Indicator: THYMIDINE INCORPORATION, Metabolic Activation: NONE, Method: AUTORADIOGRAPHY).
Consider `O=NSCCO`, for which the mutagenic call under setting [2] was “active; positive”.
As to `CC(O)C(=O)NCCO` (centres undefined), the mutagenic call (Test System: AMES SALMONELLA TYPHIMURIUM, Strain/Indicator: TA98, Metabolic Activation: RAT, LIVER, S-9, AROCLOR 1254, Method: STANDARD PLATE) was “active; positive” and the mutagenic call (Test System: AMES SALMONELLA TYPHIMURIUM, Strain/Indicator: TA1538, Metabolic Activation: RAT, LIVER, S-9, AROCLOR 1254, Method: STANDARD PLATE) is “active; positive”.
Consider `Cc1cccc(OCC(O)CNC(C)(C)C)c1C` (centres undefined), for which the mutagenic call (Test System: AMES SALMONELLA TYPHIMURIUM, Strain/Indicator: TA98, Metabolic Activation: NONE, Method: STANDARD PLATE) is “inactive; negative”; the mutagenic call (Test System: AMES SALMONELLA TYPHIMURIUM, Strain/Indicator: TA98, Metabolic Activation: S-9, Method: STANDARD PLATE) was “inactive; negative”; the mutagenic call (Test System: AMES SALMONELLA TYPHIMURIUM, Strain/Indicator: TA100, Metabolic Activation: NONE, Method: STANDARD PLATE) is “inactive; negative”; the mutagenic call (Test System: AMES SALMONELLA TYPHIMURIUM, Strain/Indicator: TA100, Metabolic Activation: S-9, Method: STANDARD PLATE) was “inactive; negative”; the mutagenic call under setting [5] was “inactive; negative”; the mutagenic call (Test System: AMES SALMONELLA TYPHIMURIUM, Strain/Indicator: TA1535, Metabolic Activation: S-9, Method: STANDARD PLATE) was “inactive; negative”. For the same compound, the mutagenic call is “inactive; negative” (Test System: AMES SALMONELLA TYPHIMURIUM, Strain/Indicator: TA1537, Metabolic Activation: NONE, Method: STANDARD PLATE); “inactive; negative” (Test System: AMES SALMONELLA TYPHIMURIUM, Strain/Indicator: TA1537, Metabolic Activation: S-9, Method: STANDARD PLATE); “inactive; negative” (Test System: AMES SALMONELLA TYPHIMURIUM, Strain/Indicator: TA1538, Metabolic Activation: NONE, Method: STANDARD PLATE); “inactive; negative” (Test System: AMES SALMONELLA TYPHIMURIUM, Strain/Indicator: TA1538, Metabolic Activation: S-9, Method: STANDARD PLATE); “inactive; negative” (Test System: E. COLI WP2, Strain/Indicator: WP2 UVRA, Metabolic Activation: NONE, Method: STANDARD PLATE); “inactive; negative” (Test System: E. COLI WP2, Strain/Indicator: WP2 UVRA, Metabolic Activation: S-9, Method: STANDARD PLATE).
`[CH3][Hg][CH3]`: the mutagenic call is, setting by setting: (End Point: IN VITRO CHROMOSOMAL ABERRATIONS, Test System: HUMAN PERIPHERAL LYMPHOCYTES, Metabolic Activation: NONE) “active; positive (structural changes and ploidy)”; (Test System: CHINESE HAMSTER G10, Strain/Indicator: G10/6-THIOGUANINE, Metabolic Activation: NONE) “inactive; negative”; (Test System: CHINESE HAMSTER G12, Strain/Indicator: G12/6-THIOGUANINE, Metabolic Activation: NONE) “inactive; negative”; (Test System: CHINESE HAMSTER V-79, Strain/Indicator: V-79/6-THIOGUANINE, Metabolic Activation: NONE) “inactive; negative”.
As to `COC(=O)/C(C#N)=C/c1ccccc1Br`, the mutagenic call by setting is: under setting [5], “inactive; negative”; (Test System: AMES SALMONELLA TYPHIMURIUM, Strain/Indicator: TA1535, Metabolic Activation: RAT, LIVER, S-9, AROCLOR 1254, Method: STANDARD PLATE) “inactive; negative”.
